Assay [1] has as its target T1, Serine/threonine-protein phosphatase (Candida dubliniensis (strain CD36 / CBS 7987 / NCPF 3949 / NRRLY-17841) (Yeast), UniProt B9W6M3).
T1 sequence (B9W6M3 whole entry): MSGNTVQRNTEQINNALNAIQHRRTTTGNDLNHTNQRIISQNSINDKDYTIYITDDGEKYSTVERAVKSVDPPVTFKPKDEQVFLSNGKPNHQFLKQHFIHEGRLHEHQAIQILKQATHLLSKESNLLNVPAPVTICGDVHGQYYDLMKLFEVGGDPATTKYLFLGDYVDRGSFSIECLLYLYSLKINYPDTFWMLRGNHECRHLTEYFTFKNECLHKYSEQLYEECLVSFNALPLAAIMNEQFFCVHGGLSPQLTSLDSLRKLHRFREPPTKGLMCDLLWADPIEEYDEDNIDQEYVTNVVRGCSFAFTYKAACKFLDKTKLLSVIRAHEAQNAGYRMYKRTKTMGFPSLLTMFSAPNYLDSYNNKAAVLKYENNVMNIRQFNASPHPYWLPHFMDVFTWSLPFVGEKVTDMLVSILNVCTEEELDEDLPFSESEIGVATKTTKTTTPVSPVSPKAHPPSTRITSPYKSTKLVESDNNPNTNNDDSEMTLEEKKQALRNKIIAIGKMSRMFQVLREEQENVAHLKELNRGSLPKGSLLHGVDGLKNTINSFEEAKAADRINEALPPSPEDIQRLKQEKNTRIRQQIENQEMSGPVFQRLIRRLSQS
The assay is described as follows: calcineurin pathway inhibitors in yeast reporter, dose response, S. cerevisiae, CDRE-lacZ, luminescence, secondary (AID 2388).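 Further: yeast reporter cells carrying a calcineurin-responsive lacZ construct stimulated with calcium chloride; luminescent beta-galactosidase reporter signal in whole cells rather than isolated phosphatase activity; potency for inhibition where a drop in reporter signal means calcineurin blockade.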 It counts as functional, cell-based.

The nature of assay [2]: C. albicans growth with fluconazole, confirmation, fluorescence, retest (AID 2467). Type of assay: functional, cell-based.
The target in assay [3] is T2, Sentrin-specific protease 6 (Homo sapiens, UniProt Q9GZR1).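 Further: Luminescence-based dose-response confirmatory assay of SENP6 inhibition, following up an ultra-high-throughput screen.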
T2 sequence (Q9GZR1 whole entry): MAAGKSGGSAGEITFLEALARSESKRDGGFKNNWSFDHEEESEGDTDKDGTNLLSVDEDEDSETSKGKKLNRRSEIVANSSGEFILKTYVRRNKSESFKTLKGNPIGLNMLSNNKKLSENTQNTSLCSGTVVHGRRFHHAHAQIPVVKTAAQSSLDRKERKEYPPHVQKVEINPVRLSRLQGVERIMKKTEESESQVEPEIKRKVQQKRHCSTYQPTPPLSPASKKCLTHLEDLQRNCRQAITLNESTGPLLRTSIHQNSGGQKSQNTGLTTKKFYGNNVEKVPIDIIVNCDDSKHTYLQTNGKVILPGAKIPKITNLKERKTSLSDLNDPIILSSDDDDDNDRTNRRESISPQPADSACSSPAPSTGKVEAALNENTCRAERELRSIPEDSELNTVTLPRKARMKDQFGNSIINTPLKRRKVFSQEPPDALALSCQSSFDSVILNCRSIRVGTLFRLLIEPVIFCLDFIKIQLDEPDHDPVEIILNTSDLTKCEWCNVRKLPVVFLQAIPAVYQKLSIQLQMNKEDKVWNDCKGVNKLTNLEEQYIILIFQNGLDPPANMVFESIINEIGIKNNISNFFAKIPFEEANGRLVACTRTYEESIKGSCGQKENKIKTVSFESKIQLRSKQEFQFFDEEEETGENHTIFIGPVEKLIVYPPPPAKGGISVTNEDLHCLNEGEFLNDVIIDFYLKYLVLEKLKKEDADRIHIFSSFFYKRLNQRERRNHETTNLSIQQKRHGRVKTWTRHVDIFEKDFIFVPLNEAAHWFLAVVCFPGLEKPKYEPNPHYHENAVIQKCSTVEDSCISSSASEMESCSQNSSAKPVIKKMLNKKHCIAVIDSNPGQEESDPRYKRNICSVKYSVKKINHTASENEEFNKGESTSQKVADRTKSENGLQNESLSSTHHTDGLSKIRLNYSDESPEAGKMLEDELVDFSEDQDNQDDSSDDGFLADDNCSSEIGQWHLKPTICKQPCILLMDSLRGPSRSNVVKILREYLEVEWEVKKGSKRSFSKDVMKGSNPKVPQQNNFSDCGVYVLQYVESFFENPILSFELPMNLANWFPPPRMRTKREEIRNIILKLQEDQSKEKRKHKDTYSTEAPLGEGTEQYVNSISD
It counts as functional.

Assay [4] deals with T3, Sentrin-specific protease 7 (Homo sapiens, UniProt Q9BQF6).
T3 sequence (Q9BQF6 whole entry): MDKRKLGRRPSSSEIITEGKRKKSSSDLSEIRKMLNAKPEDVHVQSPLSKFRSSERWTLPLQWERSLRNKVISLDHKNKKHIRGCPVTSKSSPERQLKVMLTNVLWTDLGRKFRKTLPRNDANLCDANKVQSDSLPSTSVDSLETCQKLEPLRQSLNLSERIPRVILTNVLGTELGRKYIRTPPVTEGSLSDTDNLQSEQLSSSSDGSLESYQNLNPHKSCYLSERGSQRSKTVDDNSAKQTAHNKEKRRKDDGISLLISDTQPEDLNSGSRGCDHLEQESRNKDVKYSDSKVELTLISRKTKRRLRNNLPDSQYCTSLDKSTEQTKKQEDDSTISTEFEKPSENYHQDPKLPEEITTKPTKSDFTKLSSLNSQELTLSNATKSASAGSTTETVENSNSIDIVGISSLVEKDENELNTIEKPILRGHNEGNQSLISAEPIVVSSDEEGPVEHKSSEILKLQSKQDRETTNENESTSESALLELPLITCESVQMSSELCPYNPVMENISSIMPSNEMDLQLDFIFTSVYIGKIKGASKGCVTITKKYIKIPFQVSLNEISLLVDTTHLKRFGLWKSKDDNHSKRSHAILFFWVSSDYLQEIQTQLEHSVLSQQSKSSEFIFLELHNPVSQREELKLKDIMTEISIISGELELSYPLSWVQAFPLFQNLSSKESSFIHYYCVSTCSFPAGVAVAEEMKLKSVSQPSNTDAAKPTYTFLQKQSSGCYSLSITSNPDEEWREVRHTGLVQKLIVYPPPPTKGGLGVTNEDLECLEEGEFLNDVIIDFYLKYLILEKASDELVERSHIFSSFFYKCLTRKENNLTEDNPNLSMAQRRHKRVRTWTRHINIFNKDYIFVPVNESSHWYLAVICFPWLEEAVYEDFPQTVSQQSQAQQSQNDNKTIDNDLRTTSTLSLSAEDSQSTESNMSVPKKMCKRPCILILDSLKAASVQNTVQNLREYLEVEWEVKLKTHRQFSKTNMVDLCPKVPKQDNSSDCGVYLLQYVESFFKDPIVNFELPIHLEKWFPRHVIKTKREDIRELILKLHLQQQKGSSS
It counts as functional.

The source made the active and inactive calls.

EC50 and IC50 data for two molecules are collected here from ChEMBL document CHEMBL1201862, “PubChem BioAssay data set” (2004).

A word on the EC50: it is the midpoint of the concentration-response curve. Turning to `CCCCC(=O)NC(c1ccc(N(C)C)cc1)c1ccc2cccnc2c1O` (centres undefined), the EC50 was > 180 µM (inactive) in assay [1] and 0.832 µM (active) in assay [2].
As usually defined, the IC50 is the point on the concentration scale where inhibition reaches its midpoint. For `CN(CC(=O)Nc1ccccc1Cl)C(=O)COC(=O)c1ccc([N+](=O)[O-])s1`, the 50% inhibitory concentration (IC50) is 4.72 µM (active) in assay [3] and 8.73 µM (active) in assay [4].
